Measurements reported in patent EP4509511A1, “SUBSTITUTED SPIRO-ISOXAZOLINYL LACTAMS, SALTS THEREOF AND THEIR USE AS HERBICIDALLY ACTIVE SUBSTANCES” (Bayer Aktiengesellschaft, priority 2023, dated 2025).

Key:
MATIN [1] = assay: Herbicidal post-emergence action - Part I; format: in vivo, Matricaria inodora; conditions: 1280 g/ha, one-leaf stage, rated visually after about 3 weeks vs untreated controls
Procedure: (§1) Seeds of mono- and dicotyledonous weed plants were placed in plastic pots in sandy loam soil (doubly sown with in each case one species of mono- or dicotyledonous weed plants per pot), covered with soil and cultivated in a greenhouse under controlled growth conditions. 2 to 3 weeks after sowing, the test plants were treated at the one-leaf stage. The compounds of the invention, formulated in the form of wettable powders (WP) or as emulsion concentrates (EC), were applied onto the green parts of the plants as aqueous suspension or emulsion with addition of 0.5% additive at a water application rate of 600 liters per hectare (converted). After the test plants had been kept in the greenhouse under optimum growth conditions for about 3 weeks, the activity of the preparations was rated visually in comparison to untreated controls. For example, 100% activity = the plants have died, 0% activity = like control plants. Tables B1 to B12, below, show the effects of selected compounds of the general formula (I) according to table 1 on various harmful plants and an application rate corresponding to 1280 g/ha or below obtained by the experimental procedure mentioned above. Table B1a: post-emergence activity at 1280g/ha against ABUTH in %

ALOMY [2] = assay: Herbicidal post-emergence action - Part I; format: in vivo, Alopecurus myosuroides; conditions: one-leaf stage, rated visually after about 3 weeks vs untreated controls
Procedure: as §1

DIGSA [3] = assay: Herbicidal pre-emergence action - Part I; format: in vivo, Digitaria sanguinalis; conditions: visual grading after ca. 3 weeks vs untreated controls
From the text: (§2) Seeds of mono- and dicotyledonous weed plants were sown in plastic pots (double sowings with one species of mono- and one species of dicotyledonous weed plants per pot), in sandy loam, and covered with soil. The compounds according to the invention, formulated in the form of wettable powders (WP) or as emulsifiable concentrates (EC), were applied to the surface of the covering soil as aqueous suspension or emulsion, with the addition of 0.5% of an additive, at an application rate of 600 1 of water per hectare (converted). Following treatment, the pots were placed in a greenhouse and kept under optimum growth conditions for the test plants. The visual grading of the damage to the test plants was carried out after ca. 3 weeks in comparison to untreated controls (herbicidaleffectinpercent(%):100%effect=plantshavediedoff,0%effect=ascontrolplants). [formula]
(§3) Tables A1 to A12, below, show the effects of selected compounds of the general formula (I) according to table 1 on various harmful plants and an application rate corresponding to 1280 g/ha or below obtained by the experimental procedure mentioned above. Table A1: pre-emergence activity at 1280g/ha against ABUTH in %

SETVI [4] = assay: Herbicidal post-emergence action - Part I; format: in vivo, Setaria viridis; conditions: one-leaf stage, rated visually after about 3 weeks vs untreated controls
Procedure: as §1

ECHCG [5] = assay: Herbicidal pre-emergence action - Part I; format: in vivo, Echinochloa crus-galli; conditions: visual grading after ca. 3 weeks vs untreated controls
Procedure, shortened: (§4)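 Pre-emergence soil-surface spray, 1280 g/ha or lower, WP/EC formulations plus 0.5% additive, 600 l/ha water. Pots of sandy loam, double sowing mono/dicot weeds. Greenhouse, optimum conditions; % herbicidal effect scored visually at ~3 wk, 100% = plants died, 0% = as control.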

LOLRI [6] = assay: Herbicidal pre-emergence action - Part I; format: in vivo, Lolium rigidum; conditions: visual grading after ca. 3 weeks vs untreated controls
From the text: as §2, §3

POAAN [7] = assay: Herbicidal post-emergence action - Part I; format: in vivo, Poa annua; conditions: one-leaf stage, rated visually after about 3 weeks vs untreated controls
Procedure: as §1

SETVI [8] = assay: Herbicidal pre-emergence action - Part I; format: in vivo, Setaria viridis; conditions: visual grading after ca. 3 weeks vs untreated controls
From the text: as §2, §3

POAAN [9] = assay: Herbicidal pre-emergence action - Part I; format: in vivo, Poa annua; conditions: visual grading after ca. 3 weeks vs untreated controls
From the text: as §2, §3

KCHSC [10] = assay: Herbicidal post-emergence action - Part I; format: in vivo, Kochia scoparia; conditions: one-leaf stage, rated visually after about 3 weeks vs untreated controls
Procedure, shortened: (§5)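 Greenhouse weeds grown in sandy loam were sprayed post-emergence at the one-leaf stage, 2-3 weeks after sowing. Compounds were applied as WP or EC in water with 0.5% additive at 600 L/ha, at 1280 g/ha or below. Visual damage was rated after about 3 weeks versus untreated plants (0-100%).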

STEME [11] = assay: Herbicidal post-emergence action - Part I; format: in vivo, Stellaria media; conditions: one-leaf stage, rated visually after about 3 weeks vs untreated controls
Procedure, shortened: as §5

STEME [12] = assay: Herbicidal pre-emergence action - Part I; format: in vivo, Stellaria media; conditions: visual grading after ca. 3 weeks vs untreated controls
Procedure, shortened: as §4

AMARE [13] = assay: Herbicidal post-emergence action - Part I; format: in vivo, Amaranthus retroflexus; conditions: one-leaf stage, rated visually after about 3 weeks vs untreated controls
Procedure, shortened: as §5

ABUTH = assay: Herbicidal post-emergence action - Part I; format: in vivo, Abutilon theophrasti; conditions: one-leaf stage, rated visually after about 3 weeks vs untreated controls
Procedure: as §1

VERPE = assay: Herbicidal post-emergence action - Part I; format: in vivo, Veronica persica; conditions: one-leaf stage, rated visually after about 3 weeks vs untreated controls
Procedure, shortened: as §5

ECHCG [14] = assay: Herbicidal post-emergence action - Part I; format: in vivo, Echinochloa crus-galli; conditions: 1280 g/ha, one-leaf stage, rated visually after about 3 weeks vs untreated controls
Procedure: as §1

KCHSC [15] = assay: Herbicidal pre-emergence action - Part I; format: in vivo, Kochia scoparia
From the text: as §2, §3

AMARE [16] = assay: Herbicidal pre-emergence action - Part I; format: in vivo, Amaranthus retroflexus; conditions: visual grading after ca. 3 weeks vs untreated controls
Procedure, shortened: as §4

MATIN [17] = assay: Herbicidal pre-emergence action - Part I; format: in vivo, Matricaria inodora; conditions: visual grading after ca. 3 weeks vs untreated controls
From the text: as §2, §3

ALOMY [18] = assay: Herbicidal pre-emergence action - Part I; format: in vivo, Alopecurus myosuroides; conditions: visual grading after ca. 3 weeks vs untreated controls
From the text: as §2, §3

LOLRI [19] = assay: Herbicidal post-emergence action - Part I; format: in vivo, Lolium rigidum; conditions: one-leaf stage, rated visually after about 3 weeks vs untreated controls
Procedure: as §1

DIGSA [20] = assay: Herbicidal post-emergence action - Part I; format: in vivo, Digitaria sanguinalis; conditions: 1280 g/ha, one-leaf stage, rated visually after about 3 weeks vs untreated controls
Procedure: as §1

[21] = Table A10a, 1280 g/ha, visual grading after ca. 3 weeks vs untreated controls

Row | Structure (SMILES) | pre-emergence activity at 1280g/ha against DIGSA in % (DIGSA [3]) | post-emergence activity at 1280g/ha against SETVI in % (SETVI [4]) | pre-emergence activity at 320g/ha against ECHCG in % (ECHCG [5]) | pre-emergence activity at 1280g/ha against ECHCG in % (ECHCG [5]) | pre-emergence activity at 1280g/ha against LOLRI in % (LOLRI [6]) | pre-emergence activity at 1280g/ha and against SETVI in % (SETVI [8]) | pre-emergence activity at 320g/ha and against POAAN in % (POAAN [9]) | pre-emergence activity at 1280g/ha and against POAAN in % (POAAN [9]) | post-emergence activity at 1280g/ha against KCHSC in % (KCHSC [10]) | post-emergence activity at 1280g/ha against STEME in % (STEME [11]) | pre-emergence activity at 320g/ha against STEME in % (STEME [12]) | pre-emergence activity at 1280g/ha against STEME in % (STEME [12]) | post-emergence activity at 1280g/ha against AMARE in % (AMARE [13]) | post-emergence activity at 1280g/ha against VERPE in % (VERPE) | post-emergence activity at 1280g/ha against ECHCG in % (ECHCG [14]) | pre-emergence activity at 1280g/ha against KCHSC in % (KCHSC [15]; [21]) | pre-emergence activity at 1280g/ha against AMARE in % (AMARE [16]) | pre-emergence activity at 320g/ha against MATIN in % (MATIN [17]) | pre-emergence activity at 1280g/ha against MATIN in % (MATIN [17]) | other results
1 | Cc1ccsc1C1=NOC2(CCCN(Cc3ccccc3F)C2=O)C1 (racemic) [Compound I-1, 7-(2-Fluorobenzyl)-3-(3-methyl-2-thienyl)-1-oxa-2,7-diazaspiro[4.5]dec-2-en-6-one] | 100% | 90% | 100% | 100% | 90% | 100% | 100% | 100% | 90% | 90% | 90% | 90% | 90% | 90% | 90% | 90% | 90% | 90% | 100% | post-emergence activity at 1280g/ha against MATIN in % (MATIN [1]): 90%; post-emergence activity at 1280g/ha against ALOMY in % (ALOMY [2]): 90%; post-emergence activity at 320g/ha against SETVI in % (SETVI [4]; 320 g/ha): 90%; post-emergence activity at 80g/ha against POAAN in % (POAAN [7]; 80 g/ha): 90%; post-emergence activity at 320g/ha against POAAN in % (POAAN [7]; 320 g/ha): 90%; post-emergence activity at 1280g/ha against POAAN in % (POAAN [7]; 1280 g/ha): 90%; pre-emergence activity at 320g/ha and against SETVI in % (SETVI [8]; 320 g/ha): 100%; post-emergence activity at 320g/ha against KCHSC in % (KCHSC [10]; 320 g/ha): 90%; post-emergence activity at 320g/ha against STEME in % (STEME [11]; 320 g/ha): 90%; pre-emergence activity at 80g/ha against STEME in % (STEME [12]; 80 g/ha): 90%; post-emergence activity at 320g/ha against ABUTH in % (ABUTH; 320 g/ha): 90%; post-emergence activity at 1280g/ha against ABUTH in % (ABUTH; 1280 g/ha): 90%; post-emergence activity at 320g/ha against VERPE in % (VERPE; 320 g/ha): 90%; pre-emergence activity at 1280g/ha against KCHSC in % (KCHSC [15]; Table A10b, title 1280g/ha, application rate column prints 320 g/ha, visual grading after ca. 3 weeks vs untreated controls): 90%; pre-emergence activity at 320g/ha against AMARE in % (AMARE [16]; 320 g/ha): 90%
2 | N#Cc1ncccc1C1=NOC2(CCN(Cc3ccccc3F)C2=O)C1 (racemic) [Compound I-35] | 100% | 90% | 90% | 100% | 90% | 100% | 100% | 100% | 90% | 90% | 90% | 90% | 90% | 90% | 90% | 90% | 90% | 90% | 90% | pre-emergence activity at 320g/ha against DIGSA in % (DIGSA [3]; 320 g/ha): 100%; pre-emergence activity at 320g/ha against LOLRI in % (LOLRI [6]; 320 g/ha): 90%; pre-emergence activity at 1280g/ha against ALOMY in % (ALOMY [18]): 90%; post-emergence activity at 320g/ha against AMARE in % (AMARE [13]; 320 g/ha): 90%; post-emergence activity at 1280g/ha against LOLRI in % (LOLRI [19]): 90%; post-emergence activity at 1280g/ha against DIGSA in % (DIGSA [20]): 90%; pre-emergence activity at 1280g/ha against KCHSC in % (KCHSC [15]; 1280 g/ha, 504 h): 90%
